Test system: MCF-7 cells
Assay: Activation of caspases (apostat, flow cytometry)
Format: cell-based, human
Description: The activation of caspase is closely linked to cell apoptosis, the controlled cell death, via the mitochondrial pathway or cell death receptor [23, 24]. […] Due to this, it can be concluded that cell death is accomplished through caspase-independent apoptosis. Moreover, as MCF-7 cell line is caspase-3 deficient, this was an anticipated result. Besides, the accomplishment of apoptosis induced with Ph3SnL1 in MCF-7 cells (confirmed with AO and DAPI assays) was not disturbed as this type of cell death may be activated through other death signals not involving caspase activation.
The cells were resuspended in 1 mL of PBS and analysed with flow cytometry.

## O=C(CCc1nc(-c2ccccc2)c(-c2ccccc2)o1)[O][Sn]([c]1ccccc1)([c]1ccccc1)[c]1ccccc1 [Ph3SnL1, (3-(4,5-Diphenyloxazol-2-yl)propanoato)triphenyltin(IV)]
  mode of cell death: induces caspase-independent apoptosis
48 h, IC50 concentration
  caspase activation (apostat): did not induce the activation of caspases

Source: PMC8198038, “In Vitro Evaluation of Antiproliferative Properties of Novel Organotin(IV) Carboxylate Compounds with Propanoic Acid Derivatives on a Panel of Human Cancer Cell Lines” (Molecules, 2021)
